The term IC50 denotes the point on the concentration scale where inhibition reaches its midpoint. One may read the pKa as the negative logarithm of the acid dissociation constant. Lower therefore signals a stronger acid or weaker base.

Activity calls are given as the source filed them. The rule behind the calls is not given here. Bounds are passed on as bounds.

We go through 14 compounds from ChEMBL document CHEMBL3769376, “Discovery of I-BRD9, a Selective Cell Active Chemical Probe for Bromodomain Containing Protein 9 Inhibition” (J Med Chem, 2016).

Data set [1] addresses T1, Bromodomain-containing protein 9 (Homo sapiens, UniProt Q9H8M2).
T1 sequence (Q9H8M2 whole entry): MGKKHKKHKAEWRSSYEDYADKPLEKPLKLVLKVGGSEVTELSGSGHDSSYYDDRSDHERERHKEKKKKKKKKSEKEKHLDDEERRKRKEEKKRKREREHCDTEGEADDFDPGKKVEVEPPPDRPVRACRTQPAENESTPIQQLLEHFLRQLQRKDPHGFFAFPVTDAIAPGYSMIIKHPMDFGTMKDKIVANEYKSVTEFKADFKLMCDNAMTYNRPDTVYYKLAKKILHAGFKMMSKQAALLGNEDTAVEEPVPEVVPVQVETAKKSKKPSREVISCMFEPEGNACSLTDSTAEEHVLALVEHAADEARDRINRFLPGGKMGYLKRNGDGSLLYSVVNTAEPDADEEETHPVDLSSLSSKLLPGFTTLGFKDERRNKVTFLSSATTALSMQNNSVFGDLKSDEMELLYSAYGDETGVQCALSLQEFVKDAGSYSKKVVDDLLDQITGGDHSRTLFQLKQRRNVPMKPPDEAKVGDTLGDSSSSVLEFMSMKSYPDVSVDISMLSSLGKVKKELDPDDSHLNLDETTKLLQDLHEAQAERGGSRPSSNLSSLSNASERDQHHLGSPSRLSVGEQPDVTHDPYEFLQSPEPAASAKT
Briefly: Inhibition of BRD9 (unknown origin) incubated in dark for 30 mins by TR-FRET assay.

Data set [2] is described as follows: Dissociation constant, pKa of the compound. Type of data set: physicochemical.
Data set [3] concerns the target Bromodomain-containing protein 4 (Homo sapiens, UniProt O60885). Description: Inhibition of BRD4 bromodomain 1 (unknown origin) incubated in dark for 30 mins by TR-FRET assay.
Data set [4] has as its target T2, Bromodomain-containing protein 9 (Homo sapiens) (UniProt Q9H8M2).
T2 sequence (whole entry): T1 sequence (Q9H8M2 whole entry)
Briefly: Inhibition of BRD9 in human Kasumi-1 cells assessed as downregulation of SAMSN1 gene at 1 uM after 6 hrs by qPCR method. Type of data set: cell-based. In general terms: Quantitative PCR measures a nucleic acid by following its amplification.

Data set [5] has as its target T2, Bromodomain-containing protein 9 (Homo sapiens). Description: Inhibition of BRD9 in human Kasumi-1 cells assessed as downregulation of DUSP6 gene at 1 uM after 6 hrs by qPCR method. Type of data set: cell-based.
For data set [6] the target is unchanged. Briefly: Inhibition of BRD9 in human Kasumi-1 cells assessed as downregulation of FES gene at 1 uM after 6 hrs by qPCR method. Type of data set: cell-based.
Data set [7] has the same target. Description: Inhibition of BRD9 in human Kasumi-1 cells assessed as downregulation of CLEC1 gene at 1 uM after 6 hrs by qPCR method. Type of data set: cell-based.

In the case of `Cn1cc(-c2cccc(C(F)(F)F)c2)c2sc(C(=N)NC3CCS(=O)(=O)CC3)cc2c1=O`, the IC50 in data set [1] was 15.8 nM; in data set [3], 2510 nM. Also, the pKa in data set [2] was 8.4.

With `COc1cc2c(cc1-c1c(C)noc1C)ncc1[nH]c(=O)n([C@H](C)c3ccccn3)c12`, the inhibition entry in data set [4], in data set [5], in data set [6] and in data set [7] was “inactive” each time.

Consider `Cn1cc(-c2ccccc2)c2sc(C(=N)NC3CCS(=O)(=O)CC3)cc2c1=O`, for which the IC50 was 39.8 nM in data set [1] and 1580 nM in data set [3].

`CC(C)n1cc(-c2cccc(C(F)(F)F)c2)c2sc(C(=N)NC3CCS(=O)(=O)CC3)cc2c1=O`: the values for the IC50 in data set [1] and in data set [3] were 3160 nM and over 50100 nM, respectively.

As to `Cn1cc(-c2cccc(C#N)c2)c2sc(C(=N)NC3CCS(=O)(=O)CC3)cc2c1=O`, the IC50 in data set [1] is 39.8 nM; in data set [3], 2510 nM.

Regarding `COc1ccc(-c2cn(C)c(=O)c3cc(C(=O)N4CCCCC4)sc23)cc1OC`, the IC50 is 3980 nM in data set [1] and 15800 nM in data set [3].

As for `COc1cccc(-c2cn(C)c(=O)c3cc(C(=N)NC4CCS(=O)(=O)CC4)sc23)c1`, the IC50 is 12.6 nM in data set [1] and 794 nM in data set [3].

Regarding `COc1ccc(-c2cn(C)c(=O)c3cc(C(=O)NC4CCS(=O)(=O)CC4)sc23)cc1OC`, the results for the IC50 in data set [1] and in data set [3] were 12.6 nM and 50.1 nM, respectively.

For `CN(C)c1cccc(-c2cn(C)c(=O)c3cc(C(=N)NC4CCS(=O)(=O)CC4)sc23)c1`, the values for the IC50 in data set [1] and in data set [3] were 10 nM and 501 nM, respectively.

As for `COc1ccc(-c2cn(C)c(=O)c3cc(C(=O)N(C)C)sc23)cc1OC`, the IC50 is 5010 nM in data set [1] and 12600 nM in data set [3].

For the compound `CNC(=O)c1cc2c(=O)n(C)cc(-c3ccc(OC)c(OC)c3)c2s1`, the figures for the IC50 in data set [1] and in data set [3] were 126 nM and 200 nM, respectively.

Turning to `COc1ccc(-c2cn(C)c(=O)c3cc(C(=O)N4CCN(S(C)(=O)=O)CC4)sc23)cc1OC`, the IC50 is 200 nM in data set [1] and 20000 nM in data set [3].

`COc1ccc(-c2cn(C)c(=O)c3cc(C(=N)NC4CCS(=O)(=O)CC4)sc23)cc1OC`: the IC50 in data set [1] was 7.94 nM; in data set [3], 398 nM.

As to `CNC(=N)c1cc2c(=O)n(C)cc(-c3ccc(OC)c(OC)c3)c2s1`, the IC50 was 79.4 nM in data set [1] and 1260 nM in data set [3].
